# Laboratory results as given in patent publication US8691761B2, “Somatostatin receptor 2 antagonists” (priority 2006, dated 2014).
# Entries after “also recorded” stand apart in the source; their conditions may differ. Where two headings read alike, the source gives them in different places. Bridge positions count the residues as written; N and C are the ends. Square brackets hold non-standard residues; d marks the D form. Peptide text beside a SMILES is read from it. * marks the point of attachment. ξ: configuration not given here. DOTA = O=C(O)CN1CCN(CC(=O)O)CCN(CC(=O)*)CCN(CC(=O)O)CC1; Phe(4-NO2) = N[C@@H](Cc1ccc([N+](=O)[O-])cc1)C(=O)O; dPhe(4-NHCONH2) = NC(=O)Nc1ccc(C[C@@H](N)C(=O)O)cc1; Phe(4-NHCONH2) = NC(=O)Nc1ccc(C[C@H](N)C(=O)O)cc1; Dihydroorotyl(S) = O=C1C[C@@H](C(=O)*)NC(=O)N1; Phe(4-Cl) = N[C@@H](Cc1ccc(Cl)cc1)C(=O)O; ξDihydroorotoyl = O=C1CC(C(=O)*)NC(=O)N1; Phe(4-NH2) = Nc1ccc(C[C@H](N)C(=O)O)cc1; 2Nal = N[C@@H](Cc1ccc2ccccc2c1)C(=O)O; ξPhe(4-NH2) = Nc1ccc(CC(N)C(=O)O)cc1
# Key:
# in vivo = conditions: female, athymic nude, mouse, iv, total radioactivity, biodistribution
# Experimental: (§1) The following protocol was used to determine biodistribution
# (§2) Confirmation that the transfected tumors were indeed expressing solely sst2 was obtained in resected tumor samples tested in vitro with somatostatin receptor autoradiography using subtype selective ligands.
# (§3) The biodistribution of was studied at 4 h or 24 h after injection. The organs of interest were collected, blotted dry, weighed, their radioactivity measured and the percentage of injected activity per gram (% IA/g) calculated.
# HEK-sst2 tumors [1] = conditions: mouse, in vivo
# Experimental: as §1, §2, §3
# HEK-sst2 tumors [2] = assay: In vivo biodistribution of radiolabeled peptides in nude mice bearing HEK-sst2 tumors
# Experimental: as §1, §2, §3
# human sst2A receptor = molecular target: T1, human sst2A receptor (Homo sapiens, UniProt P30874); assay: Immunofluorescence-based sst2 internalization assay in HEK-sst2 cells; type: cell-based; conditions: n ≧ 2
# T1 construct: expressed in transfected cells; host or cells: HEK293 (HEK-sst2)
# Experimental: Immunofluorescence-based sst2 Internalization Assay. Immunofluorescence microscopy-based internalization assay for sst2 was performed with HEK-sst2 using the sst2-specific antibody R2-88 as described elsewhere herein. HEK-sst2 cells were treated either with vehicle alone, the sst2 agonist [Tyr^3]-octreotide at a concentration of 100 nM, [Tyr^3]-octreotide at a concentration of 100 nM in the presence of an excess of the SRIF analogues to be tested (100 times the concentration of [Tyr^3]-octreotide), or with the SRIF analogues to be tested alone at a concentration of 10 μM, and then processed for immunofluorescence microscopy as described previously.
# sst2 = sst2 (Homo sapiens, UniProt P30874); assay: Calcium release assay in HEK-sst2 cells (Fluo-4NW); type: cell-based; parameters: expressed in transfected cells; host or cells: HEK293 (HEK-sst2); conditions: n ≧ 2
# Experimental: Calcium release assay. Intracellular calcium release was measured in HEK-sst2 using the Fluo-4NW Calcium Assay kit as described previously (Magrys, et al. “The role of anti-alpha-enolase autoantibodies in pathogenicity of autoimmune-mediated retinopathy.” J. Clin. Immunol. 2007, 27, 181-192; Michel et al. “The Nef protein of human immunodeficiency virus is a broad-spectrum modulator of chemokine receptor cell surface levels that acts independently of classical motifs for receptor endocytosis and Galphai signaling.” Mol. Biol. Cell. 2006, 17, 3578-3590). In brief, HEK-sst2 cells were seeded (25,000 cells per well) in poly-D-lysine (20 μg/mL) coated 96 well plates and cultured for 1 day at 37° C. and 5% CO2 in culture medium. At the day of the experiment, the cells were washed with assay buffer (1×HBSS, 20 mM HEPES) containing 2.5 mM probenecid, and then loaded with 100 μL/well Fluo-4NW dye in assay buffer containing 2.5 mM probenecid for 30 min at 37° C. and 5% CO2 and then for further 30 min at room temperature. To measure the intracellular calcium mobilization after stimulation with the SRIF analogues to be tested, the dye-loaded cells were transferred to a SpectraMax M2^e (Molecular Devices, Sunnyvale, Calif.). Intracellular calcium mobilization was recorded in a kinetic for 60 sec at room temperature monitoring fluorescence emission at 520 nm (with λex=485 nm) in the presence of the analogues at the concentrations indicated. Maximum fluorescence (Fmax) was measured after the addition of 25 μM ionomycin. Baseline (control) measurements were taken for dye-loaded, untreated cells. Data are shown as percentage of Fmax (% Fmax) as reported previously. (Magrys, et al. J. Clin. Immunol. 2007, 27, 181-192; Michel et al. Mol. Biol. Cell. 2006, 17, 3578-3590). All experiments were repeated at least three times in triplicate.
# hSSTR2 = molecular target: T2, hSSTR2 (Homo sapiens, UniProt P30874); assay: Receptor autoradiography, displacement of 125I-[Leu8,D-Trp22,Tyr25]-SRIF-28 from membrane pellet sections; type: binding
# T2 construct: expressed in transfected cells; host or cells: CHO-K1 or CCL39 cells
# hSSTR4 = molecular target: T3, hSSTR4 (Homo sapiens, UniProt P31391); assay: as above; type: binding
# T3 construct: expressed in transfected cells; host or cells: CHO-K1 or CCL39 cells
# hSSTR3 = molecular target: T4, hSSTR3 (Homo sapiens, UniProt P32745); assay: as above; type: binding
# T4 construct: expressed in transfected cells; host or cells: CHO-K1 or CCL39 cells
# hSSTR5 = molecular target: T5, hSSTR5 (Homo sapiens, UniProt P35346); assay: as above; type: binding
# T5 construct: expressed in transfected cells; host or cells: CHO-K1 or CCL39 cells
# hSSTR1 = molecular target: T6, hSSTR1 (Homo sapiens, UniProt P30872); assay: as above; type: binding
# T6 construct: expressed in transfected cells; host or cells: CHO-K1 or CCL39 cells
# [3] = Table 3, mean ± SEM when N ≧ 3, read-out: sst2 binding affinity (IC50)
# [4] = Table 3, mean ± SEM when N ≧ 3, read-out: sst4 binding affinity (IC50)
# [5] = Table 3, mean ± SEM when N ≧ 3, read-out: sst3 binding affinity (IC50)
# [6] = Table 3, mean ± SEM when N ≧ 3, read-out: sst5 binding affinity (IC50)
# [7] = Table 3, mean ± SEM when N ≧ 3, read-out: sst1 binding affinity (IC50)
# T6 sequence (P30872 whole entry): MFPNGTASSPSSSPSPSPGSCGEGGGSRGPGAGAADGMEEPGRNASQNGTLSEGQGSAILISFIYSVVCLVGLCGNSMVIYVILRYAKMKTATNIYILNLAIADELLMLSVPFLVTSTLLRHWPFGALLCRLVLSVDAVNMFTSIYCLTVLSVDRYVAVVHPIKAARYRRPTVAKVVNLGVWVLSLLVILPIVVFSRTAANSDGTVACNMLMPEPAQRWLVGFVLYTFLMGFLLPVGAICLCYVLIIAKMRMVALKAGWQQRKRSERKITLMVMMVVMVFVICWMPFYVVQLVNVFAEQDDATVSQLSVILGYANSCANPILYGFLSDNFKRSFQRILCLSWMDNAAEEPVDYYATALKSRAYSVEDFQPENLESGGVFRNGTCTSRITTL
# T3 sequence (P31391 whole entry): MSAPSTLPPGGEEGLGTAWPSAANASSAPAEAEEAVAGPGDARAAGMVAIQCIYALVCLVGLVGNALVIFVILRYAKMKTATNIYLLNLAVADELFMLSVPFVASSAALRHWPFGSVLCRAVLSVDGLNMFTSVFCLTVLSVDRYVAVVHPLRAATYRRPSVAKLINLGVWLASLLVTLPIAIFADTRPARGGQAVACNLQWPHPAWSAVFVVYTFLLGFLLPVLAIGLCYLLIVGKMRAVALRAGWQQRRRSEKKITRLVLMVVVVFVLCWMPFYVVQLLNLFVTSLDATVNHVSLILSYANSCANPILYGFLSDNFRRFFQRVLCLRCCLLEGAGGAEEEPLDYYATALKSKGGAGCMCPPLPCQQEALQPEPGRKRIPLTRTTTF
# T4 sequence (P32745 whole entry): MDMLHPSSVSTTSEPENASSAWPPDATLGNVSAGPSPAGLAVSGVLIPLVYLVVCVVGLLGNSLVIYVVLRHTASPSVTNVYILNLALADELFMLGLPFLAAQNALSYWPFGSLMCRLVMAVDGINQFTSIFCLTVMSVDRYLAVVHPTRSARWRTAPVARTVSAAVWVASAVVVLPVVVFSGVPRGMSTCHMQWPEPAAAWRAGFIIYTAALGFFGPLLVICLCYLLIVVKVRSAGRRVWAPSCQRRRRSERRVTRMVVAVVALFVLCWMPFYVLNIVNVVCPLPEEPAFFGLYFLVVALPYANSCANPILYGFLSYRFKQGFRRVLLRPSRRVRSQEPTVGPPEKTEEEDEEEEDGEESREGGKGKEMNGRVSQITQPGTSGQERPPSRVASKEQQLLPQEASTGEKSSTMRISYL
# T5 sequence (P35346 whole entry): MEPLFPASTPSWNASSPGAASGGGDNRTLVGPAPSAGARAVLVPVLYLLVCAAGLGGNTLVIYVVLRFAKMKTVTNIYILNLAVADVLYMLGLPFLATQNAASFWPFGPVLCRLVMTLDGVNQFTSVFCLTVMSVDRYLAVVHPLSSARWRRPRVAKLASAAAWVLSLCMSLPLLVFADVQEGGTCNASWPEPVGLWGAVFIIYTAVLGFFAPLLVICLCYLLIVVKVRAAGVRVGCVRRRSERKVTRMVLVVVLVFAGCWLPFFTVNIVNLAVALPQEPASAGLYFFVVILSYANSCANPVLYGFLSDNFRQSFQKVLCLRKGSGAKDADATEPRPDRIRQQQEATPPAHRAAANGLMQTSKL
# T2 sequence (P30874 whole entry): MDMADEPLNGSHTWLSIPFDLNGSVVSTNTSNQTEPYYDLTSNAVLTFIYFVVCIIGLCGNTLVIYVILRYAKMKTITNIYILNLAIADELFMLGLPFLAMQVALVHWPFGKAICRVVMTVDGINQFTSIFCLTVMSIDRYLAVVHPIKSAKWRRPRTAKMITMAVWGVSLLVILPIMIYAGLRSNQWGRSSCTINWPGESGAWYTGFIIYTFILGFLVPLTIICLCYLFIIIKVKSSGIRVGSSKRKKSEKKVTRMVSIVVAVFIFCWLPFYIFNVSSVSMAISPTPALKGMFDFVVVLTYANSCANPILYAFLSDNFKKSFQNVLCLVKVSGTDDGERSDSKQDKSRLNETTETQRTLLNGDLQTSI
# T1 sequence (P30874 whole entry): as above
# Chain of sst2 (P30874 whole entry): as above
structure (smiles),measurement,setting,value
"C[C@@H](O)[C@@H]1NC(=O)[C@H](CCCCN)NC(=O)[C@@H](Cc2ccc(NC(N)=O)cc2)NC(=O)[C@H](Cc2ccc(NC(=O)[C@@H]3CC(=O)NC(=O)N3)cc2)NC(=O)[C@H](NC(=O)[C@H](Cc2ccc(Cl)cc2)NC(=O)CN2CCN(CC(=O)O)CCN(CC(=O)O)CCN(CC(=O)O)CC2)CSSC[C@@H](C(N)=O)NC1=O [^111In-labelled Peptide No. 33, metal not drawn] ({DOTA}-[Phe(4-Cl)][dC][Phe(4-NH2)](Dihydroorotyl(S))[dPhe(4-NHCONH2)]KTC-NH2; disulfide 2-7)",tissue uptake at 4 h,in vivo; adrenal,0.23 %ID/g
same,tissue uptake at 4 h,in vivo; blood,0.12 %ID/g
same,tissue uptake at 4 h,in vivo; bone,0.04 %ID/g
same,tissue uptake at 4 h,in vivo; heart,0.05 %ID/g
same,tissue uptake at 4 h,in vivo; liver,0.32 %ID/g
same,tissue uptake at 4 h,in vivo; muscle,0.02 %ID/g
same,tissue uptake at 4 h,in vivo; pancreas,0.05 %ID/g
same,tissue uptake at 4 h,in vivo; pituitary,0.14 %ID/g
same,tissue uptake at 4 h,in vivo; sst2 tumor,0.22 %ID/g
same,tissue uptake at 4 h,in vivo; sst3 tumor,0.14 %ID/g
same,"biodistribution, intestine","HEK-sst2 tumors [1]; female, athymic nude, iv, 4 h",0.09 % IA/g
same,"biodistribution, kidney","HEK-sst2 tumors [1]; female, athymic nude, iv, 4 h",10.3 % IA/g
same,"biodistribution, lung","HEK-sst2 tumors [1]; female, athymic nude, iv, 4 h",0.21 % IA/g
same,"biodistribution, spleen","HEK-sst2 tumors [1]; female, athymic nude, iv, 4 h",0.2 % IA/g
same,"biodistribution, stomach","HEK-sst2 tumors [1]; female, athymic nude, iv, 4 h",0.12 % IA/g
same,effect of excess unlabelled compound on binding in vivo,HEK-sst2 tumors [2]; 1000- or 2000-fold excess of unlabelled compound,inhibited binding
"C[C@@H](O)[C@@H]1NC(=O)[C@H](CCCCN)NC(=O)[C@@H](Cc2ccc(NC(N)=O)cc2)NC(=O)[C@H](Cc2ccc(O)cc2)NC(=O)[C@H](NC(=O)[C@H](Cc2ccc([N+](=O)[O-])cc2)NC(=O)CN2CCN(CC(=O)O)CCN(CC(=O)O)CCN(CC(=O)O)CC2)CSSC[C@@H](C(=O)N[C@@H](Cc2ccc3ccccc3c2)C(N)=O)NC1=O [Peptide No. 5, DOTA-pNO2Phe-c[DCys-Tyr-DAph(Cbm)-Lys-Thr-Cys]-2Nal-NH2] ({DOTA}-[Phe(4-NO2)][dC]Y[dPhe(4-NHCONH2)]KTC[2Nal]-NH2; disulfide 2-7)",sst2-internalization tested in vitro in HEK-sst2 cells (function),human sst2A receptor,Antagonist
same,Calcium release tested in vitro in HEK-sst2 cells (function),sst2,Antagonist
same,IC50,"hSSTR2; Table 1, inhibition of radioligand binding to cloned human receptor, read-out: IC50 hSSTR2",1.5 nM
same,IC50,hSSTR2; [3],1.3 nM
same,IC50,"hSSTR4; Table 1, inhibition of radioligand binding to cloned human receptor, read-out: IC50 hSSTR4",> 1000 nM
same,IC50,hSSTR4; [4],> 1000 nM
same,IC50,"hSSTR3; Table 1, inhibition of radioligand binding to cloned human receptor, read-out: IC50 hSSTR3",> 1000 nM
same,IC50,hSSTR3; [5],> 1000 nM
same,IC50,"hSSTR5; Table 1, inhibition of radioligand binding to cloned human receptor, read-out: IC50 hSSTR5",> 1000 nM
same,IC50,hSSTR5; [6],> 1000 nM
same,IC50,"hSSTR1; Table 1, inhibition of radioligand binding to cloned human receptor, read-out: IC50 hSSTR1",> 1000 nM
same,IC50,hSSTR1; [7],> 1000 nM
same,tumor to kidney ratio (in words),"HEK-sst2 tumors [2]; mouse, in vivo",excellent tumor to kidney ratio
"C[C@@H](O)[C@@H]1NC(=O)[C@H](CCCCN)NC(=O)[C@@H](Cc2ccc(NC(N)=O)cc2)NC(=O)C(Cc2ccc(NC(=O)C3CC(=O)NC(=O)N3)cc2)NC(=O)[C@H](NC(=O)[C@H](Cc2ccc(Cl)cc2)NC(=O)CN2CCN(CC(=O)O)CCN(CC(=O)O)CCN(CC(=O)O)CC2)CSSC[C@@H](C(=O)N[C@H](Cc2ccc(O)cc2)C(N)=O)NC1=O (stereo partly drawn) [Peptide No. 31, DOTA-Cpa-c[DCys-Aph(Hor)-DAph(Cbm)-Lys-Thr-Cys]-DTyr-NH2] ({DOTA}-[Phe(4-Cl)][dC][ξPhe(4-NH2)](ξDihydroorotoyl)[dPhe(4-NHCONH2)]KTC[dY]-NH2; disulfide 2-7)",sst2-internalization tested in vitro in HEK-sst2 cells (function),human sst2A receptor,antagonistic property; also recorded: Antagonist
same,Calcium release tested in vitro in HEK-sst2 cells (function),sst2,Antagonist
same,tumor to kidney ratio (in words),HEK-sst2 tumors [1],excellent tumor to kidney ratio
same,sst2 binding affinity relative to SRIF-28,hSSTR2,three to four-fold greater
"C[C@@H](O)[C@@H]1NC(=O)[C@H](CCCCN)NC(=O)[C@@H](Cc2c[nH]c3ccccc23)NC(=O)[C@H](Cc2ccc(NC(N)=O)cc2)NC(=O)[C@H](NC(=O)[C@@H](N)Cc2ccc(Cl)cc2)CSSC[C@@H](C(N)=O)NC1=O [compound 17, H2N-Cpa-c[DCys-Aph(Cbm)-DTrp-Lys-Thr-Cys]-NH2] (H-[Phe(4-Cl)][dC][Phe(4-NHCONH2)][dW]KTC-NH2; disulfide 2-7)",sst2-internalization tested in vitro in HEK-sst2 cells (function),human sst2A receptor,Antagonist
same,Calcium release tested in vitro in HEK-sst2 cells (function),sst2,Antagonist
same,IC50,hSSTR2; [3],5.9 ± 1.8 nM
same,IC50,hSSTR4; [4],> 1000 nM
same,IC50,hSSTR3; [5],138 ± 52 nM
same,IC50,hSSTR5; [6],461 ± 106 nM
same,IC50,hSSTR1; [7],> 1000 nM
